Measured values: patent US20060009918A1, “Methods and materials for enhancing the effects of protein modulators” (priority 2004, published 2006)

Target: T1, carbonic anhydrase (bovine erythrocyte, Sigma Chemical Company, mixture of isozymes) (Bos taurus, UniProt P00921)
T1 construct: purchased Sigma Chemical Company; host or cells: bovine erythrocyte
Assay: Binding constants by isothermal titration calorimetry
Procedure: The binding constants of these complexes with carbonic anhydrase (bovine erythrocyte, Sigma Chemical Company, mixture of isozymes) were determined employing isothermal titration calorimetry (25 mM HEPES buffer, pH=7.0), and the results are presented in Table 1.
The titration procedures employing isothermal titration calorimetry were carried out employing the instrument ITC-4200 (Calscorp Inc., Provo, Utah). The reference cell (volume: 1.32 mL) was filled with 25 mM HEPES buffer, pH=7.0. Carbonic anhydrase was taken in the sample cell (1.32 mL, […] protein in 25 mM HEPES buffer, pH=7.0). The copper complexes (1 mM) were dissolved in the same buffer and were added to the enzyme solution (42×5 μL injections). Heats of dilution for the complexes were separately determined by injecting the solution of the complexes in buffer (taken in the sample cell). The heats of dilution were subtracted from the titration data files, and the resultant data were processed by the software provided by the manufacturer (Bind Works 3.0).

[1] = isothermal titration calorimetry, 25 mM HEPES buffer, pH=7.0

T1 sequence (P00921 2-260 limits assumed): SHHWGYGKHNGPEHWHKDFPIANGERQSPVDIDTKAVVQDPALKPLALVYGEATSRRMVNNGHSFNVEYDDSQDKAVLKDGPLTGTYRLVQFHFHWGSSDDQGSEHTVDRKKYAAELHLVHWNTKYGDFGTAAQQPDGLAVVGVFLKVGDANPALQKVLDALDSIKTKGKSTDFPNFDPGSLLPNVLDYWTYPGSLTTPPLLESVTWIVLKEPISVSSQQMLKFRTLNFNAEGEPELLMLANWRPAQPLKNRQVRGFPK

For NS(=O)(=O)c1ccccc1 [Control 6, Benzene sulfonamide, reference compound], the Kd (carbonic anhydrase, summary statement) was 120 µM, the Binding constant [1] was “(9.0 ± 0.1) × 10^3” and the Enthalpy [1] was -31.2 ± 1.6 kcal/mol. The “affinity for the enzyme (in words)” value (titration with the enzyme) was “weak affinity”.
